In the OligoGym collection one finds 3 h FOB score data, which are given here for 26 substances.

HELM strings list units from the 5' end as sugar, base in round brackets, then linkage (d deoxyribose, r ribose, m 2'-O-methyl, p phosphodiester). Strings are as the collection lists them; they lack the last nucleoside at the 3' end of the tested compound. [moe] = 2'-O-(2-methoxyethyl) (MOE); [sp] = phosphorothioate linkage; [m5C] = 5-methylcytosine

For this data set, the target named is GFAP. In words: mouse, dose not given. As to conditions: ASO.
“RNA1{[moe](A)[sp].[moe](G)p.[moe](T)p.[moe]([m5C])p.[moe](A)[sp].d(G)[sp].d([m5C])[sp].d([m5C])[sp].d(T)[sp].d(G)[sp].d(G)[sp].d(T)[sp].d(T)[sp].[moe](A)p.[moe](G)p.[moe]([m5C])[sp].[moe]([m5C])}$$$$ (last 3' nucleoside missing)” registered a 3 h FOB score of 2 score 0-7.

In the case of “RNA1{[moe](A)[sp].[moe](G)p.[moe](T)p.[moe]([m5C])p.[moe](A)[sp].d(G)[sp].d([m5C])[sp].d([m5C])[sp].d(T)[sp].d(G)[sp].d(G)[sp].d(T)[sp].d(T)[sp].d(A)[sp].d(G)[sp].[moe]([m5C])p.[moe]([m5C])p.[moe](T)[sp].[moe](T)}$$$$ (last 3' nucleoside missing)”, the 3 h FOB score worked out at 6 score 0-7.

In turn, “RNA1{[moe](A)[sp].[moe](G)p.[moe](T)p.[moe]([m5C])p.[moe](A)p.[moe](G)p.d([m5C])[sp].d([m5C])[sp].d(T)[sp].d(G)[sp].d(G)[sp].d(T)[sp].d(T)[sp].d(A)[sp].d(G)[sp].d([m5C])[sp].[moe]([m5C])p.[moe](T)[sp].[moe](T)}$$$$ (last 3' nucleoside missing)” gave a 3 h FOB score of 3 score 0-7.

Turning to “RNA1{[moe](A)[sp].[moe](G)p.[moe](T)p.[moe]([m5C])p.[moe](A)p.d(G)[sp].d([m5C])[sp].d([m5C])[sp].d(T)[sp].d(G)[sp].d(G)[sp].d(T)[sp].d(T)[sp].d(A)[sp].d(G)[sp].[moe]([m5C])p.[moe]([m5C])p.[moe](T)[sp].[moe](T)}$$$$ (last 3' nucleoside missing)”, the 3 h FOB score is 4 score 0-7.

In turn, “RNA1{[moe](A)[sp].[moe](G)p.[moe](T)p.[moe]([m5C])p.[moe](T)[sp].d([m5C])[sp].d(A)[sp].d(G)[sp].d(T)[sp].d(T)[sp].d(T)[sp].d(T)[sp].d([m5C])[sp].d([m5C])[sp].d(T)[sp].[moe]([m5C])p.[moe]([m5C])p.[moe](A)[sp].[moe](G)}$$$$ (last 3' nucleoside missing)” displayed a 3 h FOB score of 2 score 0-7.

For the substance “RNA1{[moe](A)[sp].[moe](G)p.[moe](T)p.[moe]([m5C])p.d(A)[sp].d(G)[sp].d([m5C])[sp].d([m5C])[sp].d(T)[sp].d(G)[sp].d(G)[sp].d(T)[sp].d(T)[sp].d(A)[sp].[moe](G)p.[moe]([m5C])p.[moe]([m5C])p.[moe](T)[sp].[moe](T)}$$$$ (last 3' nucleoside missing)”, the 3 h FOB score was found to be 3 score 0-7.

As to “RNA1{[moe](A)[sp].[moe](G)p.[moe]([m5C])p.[moe](A)p.[moe](T)[sp].d(A)[sp].d(G)[sp].d(G)[sp].d(G)[sp].d(A)[sp].d(T)[sp].d(A)[sp].d(T)[sp].d([m5C])[sp].d([m5C])[sp].[moe]([m5C])p.[moe](A)p.[moe]([m5C])[sp].[moe]([m5C])}$$$$ (last 3' nucleoside missing)”, the 3 h FOB score came out at 2 score 0-7.

Substance “RNA1{[moe](A)[sp].[moe](G)p.[moe]([m5C])p.[moe](A)p.[moe](T)[sp].d(T)[sp].d(T)[sp].d(G)[sp].d(T)[sp].d([m5C])[sp].d(T)[sp].d(T)[sp].d(T)[sp].[moe](A)p.[moe](T)p.[moe](T)[sp].[moe](T)}$$$$ (last 3' nucleoside missing)” showed a 3 h FOB score of 3 score 0-7.

Turning to “RNA1{[moe](A)[sp].[moe](G)p.[moe]([m5C])p.[moe](A)p.[moe](T)[sp].d(T)[sp].d(T)[sp].d(G)[sp].d(T)[sp].d([m5C])[sp].d(T)[sp].d(T)[sp].d(T)[sp].d(A)[sp].d(T)[sp].[moe](T)p.[moe](T)p.[moe](T)[sp].[moe](T)}$$$$ (last 3' nucleoside missing)”, the 3 h FOB score is 1 score 0-7.

“RNA1{[moe](A)[sp].[moe](G)p.[moe]([m5C])p.[moe](A)p.[moe](T)p.[moe](T)p.d(T)[sp].d(G)[sp].d(T)[sp].d([m5C])[sp].d(T)[sp].d(T)[sp].d(T)[sp].d(A)[sp].d(T)[sp].d(T)[sp].[moe](T)p.[moe](T)[sp].[moe](T)}$$$$ (last 3' nucleoside missing)” gave a 3 h FOB score of 1 score 0-7.

As for “RNA1{[moe](A)[sp].[moe](G)p.[moe]([m5C])p.[moe](A)p.d(T)[sp].d(T)[sp].d(T)[sp].d(G)[sp].d(T)[sp].d([m5C])[sp].d(T)[sp].d(T)[sp].d(T)[sp].d(A)[sp].[moe](T)p.[moe](T)p.[moe](T)p.[moe](T)[sp].[moe](T)}$$$$ (last 3' nucleoside missing)”, the 3 h FOB score stood at 1 score 0-7.

In turn, “RNA1{[moe](A)[sp].[moe](G)p.[moe]([m5C])p.[moe]([m5C])p.[moe](A)[sp].d(G)[sp].d(T)[sp].d(G)[sp].d(T)[sp].d([m5C])[sp].d(T)[sp].d(T)[sp].d([m5C])[sp].d(A)[sp].d([m5C])[sp].[moe](T)p.[moe](T)p.[moe](T)[sp].[moe](G)}$$$$ (last 3' nucleoside missing)” yielded a 3 h FOB score of 2 score 0-7.

In the case of “RNA1{[moe](A)[sp].[moe](G)p.[moe]([m5C])p.[moe]([m5C])p.[moe](T)[sp].d(G)[sp].d(G)[sp].d(T)[sp].d(T)[sp].d(A)[sp].d(G)[sp].d([m5C])[sp].d([m5C])[sp].[moe](T)p.[moe](T)p.[moe](T)[sp].[moe]([m5C])}$$$$ (last 3' nucleoside missing)”, the 3 h FOB score worked out at 4 score 0-7.

In turn, “RNA1{[moe](A)[sp].[moe](G)p.[moe]([m5C])p.[moe]([m5C])p.[moe]([m5C])[sp].d([m5C])[sp].d(A)[sp].d([m5C])[sp].d([m5C])[sp].d(T)[sp].d(A)[sp].d(G)[sp].d(A)[sp].d(A)[sp].d(G)[sp].[moe](T)p.[moe](A)p.[moe]([m5C])[sp].[moe]([m5C])}$$$$ (last 3' nucleoside missing)” registered a 3 h FOB score of 2 score 0-7.

In turn, “RNA1{[moe](A)[sp].[moe](T)p.[moe](G)p.[moe](G)p.[moe](G)[sp].d(T)[sp].d(G)[sp].d(A)[sp].d(G)[sp].d(G)[sp].d(T)[sp].d(G)[sp].d(A)[sp].d(G)[sp].d(G)[sp].[moe](A)p.[moe](G)p.[moe](T)[sp].[moe]([m5C])}$$$$ (last 3' nucleoside missing)” showed a 3 h FOB score of 5 score 0-7.

Consider “RNA1{[moe](A)[sp].[moe](T)p.[moe](T)p.[moe](T)p.[moe](A)[sp].d(A)[sp].d([m5C])[sp].d(A)[sp].d(T)[sp].d(T)[sp].d(A)[sp].d(A)[sp].d(G)[sp].d(A)[sp].d(G)[sp].[moe]([m5C])p.[moe](A)p.[moe](G)[sp].[moe](G)}$$$$ (last 3' nucleoside missing)”, for which the 3 h FOB score worked out at 4 score 0-7.

Regarding “RNA1{[moe](A)[sp].[moe](T)p.[moe](T)p.[moe](T)p.[moe](G)[sp].d(T)[sp].d([m5C])[sp].d(T)[sp].d(T)[sp].d(T)[sp].d(A)[sp].d(T)[sp].d(T)[sp].[moe](T)p.[moe](T)p.[moe](T)[sp].[moe]([m5C])}$$$$ (last 3' nucleoside missing)”, the 3 h FOB score stood at 0 score 0-7.

With “RNA1{[moe](A)[sp].[moe](T)p.[moe](T)p.[moe](T)p.[moe](G)[sp].d(T)[sp].d([m5C])[sp].d(T)[sp].d(T)[sp].d(T)[sp].d(A)[sp].d(T)[sp].d(T)[sp].d(T)[sp].d(T)[sp].[moe](T)p.[moe]([m5C])p.[moe]([m5C])[sp].[moe](T)}$$$$ (last 3' nucleoside missing)”, the 3 h FOB score was determined as 0 score 0-7.

For “RNA1{[moe](A)[sp].[moe](T)p.[moe](T)p.[moe](T)p.[moe](G)p.[moe](G)p.d([m5C])[sp].d(A)[sp].d(G)[sp].d(T)[sp].d(A)[sp].d(T)[sp].d(T)[sp].d(A)[sp].d([m5C])[sp].d([m5C])[sp].[moe](T)p.[moe]([m5C])[sp].[moe](T)}$$$$ (last 3' nucleoside missing)”, the 3 h FOB score is 0 score 0-7.

“RNA1{[moe](A)[sp].[moe](T)p.[moe](T)p.[moe](T)p.[moe](G)p.[moe](T)p.d([m5C])[sp].d(T)[sp].d(T)[sp].d(T)[sp].d(A)[sp].d(T)[sp].d(T)[sp].d(T)[sp].d(T)[sp].d(T)[sp].[moe]([m5C])p.[moe]([m5C])[sp].[moe](T)}$$$$ (last 3' nucleoside missing)” gave a 3 h FOB score of 0 score 0-7.

For the substance “RNA1{[moe](A)[sp].[moe](T)p.[moe](T)p.[moe](T)p.[moe](G)p.d(G)[sp].d([m5C])[sp].d(A)[sp].d(G)[sp].d(T)[sp].d(A)[sp].d(T)[sp].d(T)[sp].d(A)[sp].d([m5C])[sp].[moe]([m5C])p.[moe](T)p.[moe]([m5C])[sp].[moe](T)}$$$$ (last 3' nucleoside missing)”, the 3 h FOB score stood at 2 score 0-7.

Regarding “RNA1{[moe](A)[sp].[moe](T)p.[moe](T)p.[moe](T)p.d(A)[sp].d(T)[sp].d([m5C])[sp].d(T)[sp].d(G)[sp].d(T)[sp].d(G)[sp].d([m5C])[sp].d(T)[sp].d(T)[sp].[moe](T)p.[moe](A)p.[moe](G)p.[moe](T)[sp].[moe](G)}$$$$ (last 3' nucleoside missing)”, the 3 h FOB score stood at 2 score 0-7.

“RNA1{[moe](A)[sp].[moe](T)p.[moe](T)p.[moe](T)p.d(G)[sp].d(G)[sp].d([m5C])[sp].d(A)[sp].d(G)[sp].d(T)[sp].d(A)[sp].d(T)[sp].d(T)[sp].d(A)[sp].[moe]([m5C])p.[moe]([m5C])p.[moe](T)p.[moe]([m5C])[sp].[moe](T)}$$$$ (last 3' nucleoside missing)” showed a 3 h FOB score of 3 score 0-7.

“RNA1{[moe](A)[sp].[moe](T)p.[moe](T)p.[moe](T)p.d(G)[sp].d(T)[sp].d([m5C])[sp].d(T)[sp].d(T)[sp].d(T)[sp].d(A)[sp].d(T)[sp].d(T)[sp].d(T)[sp].[moe](T)p.[moe](T)p.[moe]([m5C])p.[moe]([m5C])[sp].[moe](T)}$$$$ (last 3' nucleoside missing)”: the 3 h FOB score is 0 score 0-7.

“RNA1{[moe](A)[sp].[moe](T)p.[moe](T)p.[moe]([m5C])p.[moe](A)[sp].d([m5C])[sp].d(T)[sp].d(A)[sp].d(A)[sp].d(T)[sp].d(A)[sp].d(T)[sp].d(T)[sp].[moe](T)p.[moe](A)p.[moe](A)[sp].[moe]([m5C])}$$$$ (last 3' nucleoside missing)” returned a 3 h FOB score of 0 score 0-7.

“RNA1{[moe](A)[sp].[moe]([m5C])p.[moe](A)p.[moe](G)p.[moe](T)p.d(T)[sp].d([m5C])[sp].d([m5C])[sp].d([m5C])[sp].d(A)[sp].d(G)[sp].d(A)[sp].d(T)[sp].d(A)[sp].d([m5C])[sp].[moe](T)p.[moe]([m5C])p.[moe]([m5C])[sp].[moe](G)}$$$$ (last 3' nucleoside missing)” showed a 3 h FOB score of 2 score 0-7.
